According to US7109333B2, “Heterocyclic compounds” (SmithKline Beecham Corporation, priority 1998, dated 2006):
Counter-ions that a name gives are not always drawn.

Tests used:
[1] = tested on: HN5 head and neck tumor cell line; test: Methylene blue growth inhibition assay, HN5; assay type: cell-based; details: Homo sapiens, 72 h; HN5, 3 days; read-out: Cell Proliferation HN5, IC50
Protocol: (§1) Human breast (BT474), head and neck (HN5) and gastric tumor (N87) cell lines were cultured in low glucose DMEM (Life Technologies 12320–032) containing 10% fetal bovine serum (FBS) at 37° C. in a humidified 10% CO2, 90% air incubator. The SV40 transformed human mammary epithelial cell line HB4a was transfected with either human H-ras cDNA (HB4a r4.2) or the human c-erbB2 cDNA (HB4a c5.2). The HB4a clones were cultured in RPMI containing 10% FBS, insulin (5 μg/ml), hydrocortisone (5 μg/ml), supplemented with the selection agent hygromycin B (50 μg/ml). Cells were harvested using trypsin/EDTA, counted using a haemocytometer, and plated in […] of the appropriate media, at the following densities, in a 96-well tissue culture plate (Falcon 3075): BT474 10,000 cells/well, HN5 3,000 cells/well, N87 10,000 cells/well, HB4a c5.2 3,000 cells/well, HB4a r4.2 3,000 cells/well. The next day, compounds were diluted in DMEM containing […] gentamicin, at twice the final required concentration, from 10 mM stock solutions in DMSO. […] of these dilutions were added to the […] of media currently on the cell plates. Medium containing 0.6% DMSO was added to control wells. Compounds diluted in DMEM were added to all cell lines, including the HB4a r4.2 and HB4a c5.2 cell lines. The final concentration of DMSO in all wells was 0.3%. Cells were incubated at 37° C., 10% CO2 for 3 days. Medium was removed by aspiration. Cell biomass was estimated by staining cells with 100 μl per well methylene blue (Sigma M9140, 0.5% in 50:50 ethanol:water), and incubation at room temperature for at least 30 minutes. Stain was removed, and the plates rinsed under a gentle stream of water, and air-dried. To release stain from the cells 100 μl of solubilization solution was added (1% N-lauroyl sarcosine, Sodium salt, Sigma L5125, in PBS), and plates were shaken gently for about 30 minutes. Optical density at 620 nm was measured on a microplate reader. Percent inhibition of cell growth was calculated relative to vehicle treated control wells. Concentration of compound that inhibits 50% of cell growth (IC50) was interpolated using nonlinear regression (Levenberg-Marquardt) and the equation, y=Vmax*(1−(x/(K+x)))+Y2, where “K” was equal to the IC50.

[2] = tested on: BT474 breast tumor cell line; test: Methylene blue growth inhibition assay, BT474; assay type: cell-based; details: Homo sapiens, BT-474, 72 h; BT474, 3 days; read-out: Cell Proliferation BT474, IC50
Protocol: as §1

[3] = target: T1, EGFr isolated from solubilised A431 cell membranes (Homo sapiens, UniProt P00533); test: Substrate phosphorylation assay, EGF-r, assay (a) (time-resolved fluorescence); assay type: biochemical
T1 construct: EGFr isolated from solubilised A431 cell membranes; endogenous in cells; host or cells: A431 cell membranes (solubilised)
T1 sequence (P00533 25-1210): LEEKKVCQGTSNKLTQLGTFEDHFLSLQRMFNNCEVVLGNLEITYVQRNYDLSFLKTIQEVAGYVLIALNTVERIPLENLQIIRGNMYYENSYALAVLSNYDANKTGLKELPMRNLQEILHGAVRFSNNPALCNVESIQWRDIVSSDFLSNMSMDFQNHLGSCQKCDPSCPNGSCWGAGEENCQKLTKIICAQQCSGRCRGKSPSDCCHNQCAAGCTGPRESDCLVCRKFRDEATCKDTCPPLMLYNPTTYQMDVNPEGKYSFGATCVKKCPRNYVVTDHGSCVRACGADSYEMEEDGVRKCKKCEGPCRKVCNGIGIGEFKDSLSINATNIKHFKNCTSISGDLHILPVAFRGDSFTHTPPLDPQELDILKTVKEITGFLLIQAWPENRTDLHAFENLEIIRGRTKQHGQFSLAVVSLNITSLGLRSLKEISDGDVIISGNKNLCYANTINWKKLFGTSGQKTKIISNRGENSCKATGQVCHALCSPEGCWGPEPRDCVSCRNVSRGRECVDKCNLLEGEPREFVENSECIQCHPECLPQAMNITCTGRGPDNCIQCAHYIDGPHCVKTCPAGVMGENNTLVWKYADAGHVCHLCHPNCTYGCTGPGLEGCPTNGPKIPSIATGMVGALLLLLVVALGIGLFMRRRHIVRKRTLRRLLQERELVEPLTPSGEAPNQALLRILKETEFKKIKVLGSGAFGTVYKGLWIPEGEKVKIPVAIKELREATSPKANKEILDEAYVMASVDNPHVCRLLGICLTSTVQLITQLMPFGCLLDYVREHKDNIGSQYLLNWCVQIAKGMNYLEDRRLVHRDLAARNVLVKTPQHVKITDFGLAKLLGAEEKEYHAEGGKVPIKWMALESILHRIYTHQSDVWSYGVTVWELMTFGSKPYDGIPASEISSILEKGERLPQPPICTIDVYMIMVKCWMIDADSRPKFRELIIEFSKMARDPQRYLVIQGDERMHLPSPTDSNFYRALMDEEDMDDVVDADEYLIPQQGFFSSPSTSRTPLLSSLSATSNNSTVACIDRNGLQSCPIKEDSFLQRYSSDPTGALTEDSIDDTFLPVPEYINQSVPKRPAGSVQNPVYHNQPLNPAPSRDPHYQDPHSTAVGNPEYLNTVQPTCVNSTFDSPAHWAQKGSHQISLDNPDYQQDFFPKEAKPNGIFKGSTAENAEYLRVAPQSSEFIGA
Excerpt: (§2) The substrate phosphorylation assays use baculovirus expressed, recombinant constructs of the intracellular domains of c-erbB-2 and c-erbB-4 that are constitutively active and EGFr isolated from solubilised A431 cell membranes. The method measures the ability of the isolated enzymes to catalyse the transfer of the g-phosphate from ATP onto tyrosine residues in a biotinylated synthetic peptide (Biotin-[…]. Substrate phosphorylation was detected following either of the following two procedures: a.) c-ErbB-2, c-ErbB4 or EGFr were incubated for 30 minutes, at room temperature, with 10 mM MnCl2, 10 mM ATP, 5 mM peptide, and test compound (diluted from a 5 mM stock in DMSO, final DMSO concentration is 2%) in 40 mM HEPES buffer, pH 7.4. The reaction was stopped by the addition of EDTA (final concentration 0.15 mM) and a sample was transferred to a streptavidin-coated 96-well plate. The plate was washed and the level of phosphotyrosine on the peptide was determined using a Europium-labelled antiphosphotyrosine antibody and quantified with a time-resolved fluorescence technique. b.) ErbB2 was incubated for 50 minutes at room temperature with 15 mM MnCl2, 2 mM ATP, 0.25 mCi [γ-^33P] ATP/well, 5 mM peptide substrate, and test compound (diluted from a 10 mM stock in DMSO, final DMSO concentration is 2%) in 50 mM MOPS pH 7.2. The reaction was terminated by the addition of […] of PBS containing 2.5 mg/ml streptavidin-coated SPA beads (Amersham Inc.), 50 mM ATP, 10 mM EDTA and 0.1% TX-100. The microtitre plates were sealed and SPA beads were allowed to settle for at least six hours. The SPA signal was measured using a Packard Topcount 96-well plate scintillation counter (Packard Instrument Co., Meriden, Conn.).

[4] = tested on: HB4a c5.2 (HB4a transfected with human c-erbB2 cDNA); test: Methylene blue growth inhibition assay, HB4a erbB2; assay type: cell-based; details: 72 h, HB4a c5.2, 3 days, read-out: Cell Proliferation HB4a erbB2, IC50
Protocol: as §1

[5] = tested on: N87 gastric tumor cell line; test: Methylene blue growth inhibition assay, N87; assay type: cell-based; details: Homo sapiens, 72 h; N87, 3 days; read-out: Cell Proliferation N87, IC50
Protocol: as §1

[6] = tested on: HB4a r4.2 (HB4a transfected with human H-ras cDNA); test: Methylene blue growth inhibition assay, HB4a ras; assay type: cell-based; details: 72 h, HB4a r4.2, 3 days, read-out: Cell Proliferation HB4a ras, IC50
Protocol: as §1

c-erbB-2 = target: T2, c-erbB-2 (Homo sapiens, UniProt P04626); test: Substrate phosphorylation assay, erbB2, assay (b) (SPA, 33P-ATP); assay type: biochemical; details: Tables 1A and 1B
T2 construct: baculovirus expressed, recombinant constructs of the intracellular domains of c-erbB-2 and c-erbB-4; made in house
T2 sequence (P04626 676-1255 limits assumed): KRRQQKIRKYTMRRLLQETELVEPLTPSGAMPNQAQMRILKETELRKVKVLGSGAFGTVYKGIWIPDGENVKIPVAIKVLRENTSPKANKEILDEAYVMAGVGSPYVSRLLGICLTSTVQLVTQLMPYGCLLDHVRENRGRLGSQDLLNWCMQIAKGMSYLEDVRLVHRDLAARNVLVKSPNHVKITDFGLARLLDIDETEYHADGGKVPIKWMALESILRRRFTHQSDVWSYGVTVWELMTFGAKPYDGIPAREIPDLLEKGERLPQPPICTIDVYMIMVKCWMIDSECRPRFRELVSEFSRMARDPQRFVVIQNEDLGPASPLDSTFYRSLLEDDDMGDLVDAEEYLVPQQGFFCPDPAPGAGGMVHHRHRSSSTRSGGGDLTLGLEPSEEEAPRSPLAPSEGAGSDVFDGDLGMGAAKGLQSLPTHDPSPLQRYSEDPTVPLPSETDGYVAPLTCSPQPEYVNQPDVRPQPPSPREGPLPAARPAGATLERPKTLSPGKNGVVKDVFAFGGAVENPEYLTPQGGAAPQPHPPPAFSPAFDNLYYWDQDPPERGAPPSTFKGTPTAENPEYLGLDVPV
Excerpt: as §2

Row | SMILES | IC50 [1] | IC50 [2] | IC50 [3] | IC50 [5] | IC50 (c-erbB-2) | IC50 [4] | IC50 [6]
1 | CS(=O)(=O)CCNCc1nc(-c2ccc3ncnc(Nc4ccc(OCc5ccccc5)cc4)c3c2)cs1 [Example 7, (4-Benzyloxy-phenyl)-(6-(2-((2-methanesulphonyl-ethylamino)-methyl)-thiazol-4-yl)-quinazolin-4-yl)-amine dihydrochloride] | < 5 µM | < 5 µM | < 0.1 µM | < 5 µM | < 0.1 µM | < 5 µM | 5 to 25 µM
2 | CS(=O)(=O)CCNCc1ccc(-c2ccc3ncnc(Nc4ccc(OCc5cccc(Br)c5)cc4)c3c2)o1 [Example 19, N-{4-[(3-bromobenzyl)oxy]phenyl}-6-[5-({[2-(methanesulphonyl)ethyl]amino}methyl)-2-furyl]-4-quinazolinamine] | < 5 µM | < 5 µM |  | < 5 µM | < 0.1 µM | < 5 µM | > 50 µM
3 | COc1cc2ncnc(Nc3ccc4c(cnn4Cc4ccccc4)c3)c2cc1-c1ccc(CNCCS(C)(=O)=O)o1 [Example 16, N-(1-benzyl-1H-indazol-5-yl)-7-methoxy-6-[5-({[2-(methanesulphonyl)ethyl]amino}methyl)-2-furyl]-4-quinazolinamine] | < 5 µM | < 5 µM |  | < 5 µM | < 0.1 µM | < 5 µM | 5 to 25 µM
4 | CS(=O)(=O)CCNCc1ccc(-c2cc3c(Nc4ccc(S(=O)(=O)c5ccccc5)cc4)ncnc3cc2F)o1 [Example 36, N-[4-(Phenylsulphonyl)phenyl]-7-fluoro-6-[5-({[2-(methanesulphonyl)ethyl]amino]methyl)-2-furyl]-4-quinazolinamine] | 5 to 25 µM | 5 to 25 µM |  | 5 to 25 µM | < 0.1 µM | 5 to 25 µM | > 50 µM
5 | CS(=O)(=O)CCNCc1ccc(-c2ccc3ncnc(Nc4ccc(OCc5ccccc5)c(Cl)c4)c3c2)o1 [Example 28] | < 5 µM | < 5 µM |  | < 5 µM | < 0.1 µM | < 5 µM | 25 to 50 µM
6 | COc1cc2ncnc(Nc3ccc(S(=O)(=O)c4ccccc4)cc3)c2cc1-c1ccc(CNCCS(C)(=O)=O)o1 [Example 33, 6-[5-({[2-(Methanesulphonyl)ethyl]amino}methyl)-2-furyl]-7-methoxy-N-(4-benzenesulphonyl)phenyl-4-quinazolinamine] | < 5 µM | < 5 µM |  | < 5 µM | < 0.1 µM | < 5 µM | < 5 µM
7 | CS(=O)(=O)CCNCc1ccc(-c2ccc3ncnc(Nc4ccc(S(=O)(=O)c5ccccc5)cc4)c3c2)o1 [Example 22, 6-[5-({[2-(methanesulphonyl)ethyl]amino}methyl)-2-furyl]-N-[4-(benzenesulphonyl)phenyl]-4-quinazolinamine] | < 5 µM | < 5 µM |  | < 5 µM | < 0.1 µM | < 5 µM | 25 to 50 µM
8 | CS(=O)(=O)CCNCc1coc(-c2ccc3ncnc(Nc4ccc(OCc5ccccc5)cc4)c3c2)c1 [Example 11, N-[4-(benzyloxy)phenyl]-6-[4-({[2-(methanesulphonyl)ethyl]amino}methyl)-2-furyl]-4-quinazolinamine] | < 5 µM | < 5 µM |  | < 5 µM | < 0.1 µM | < 5 µM | > 50 µM
9 | CS(=O)(=O)CCNCc1nc(-c2ccc3ncnc(Nc4ccc(OCc5cccc(F)c5)c(F)c4)c3c2)cs1 [Example 25, N-{3-fluoro-4-[(3-fluorobenzyl)oxy]phenyl}-6-[2-({[2-(methanesulphonyl)ethyl]amino}methyl)-1,3-thiazol-4-yl]-4-quinazolinamine] | < 5 µM | < 5 µM |  | < 5 µM | < 0.1 µM | < 5 µM | > 50 µM
10 | CS(=O)(=O)CCNCc1coc(-c2cc3c(Nc4ccc(OCc5cccc(F)c5)cc4)ncnc3cn2)c1 [Example 6, (4-(3-Fluorobenzyloxy)-phenyl)-(6-(4-((2-methanesulphonyl-ethylamino)-methyl)-furan-2-yl)-pyrido[3,4-d]pyrimidin-4-yl)-amine dihydrochloride] | < 5 µM | < 5 µM |  | < 5 µM | 0.1 to 1 µM | < 5 µM | 25 to 50 µM

Second part, led by results:

Row | IC50 [1] | IC50 [2] | IC50 [3] | IC50 [5] | IC50 (c-erbB-2) | SMILES | IC50 [4] | IC50 [6]
11 | < 5 µM | < 5 µM | < 0.1 µM | < 5 µM | 0.1 to 1 µM | CS(=O)(=O)CCNCc1cccc(-c2cc3c(Nc4ccc(OCc5ccccc5)cc4)ncnc3cn2)c1 [Example 4, (4-Benzyloxy-phenyl)-(6-(3-((2-methanesulphonyl-ethylamino)-methyl)-phenyl)-pyrido[3,4-d]pyrimidin-4-yl)-amine dihydrochloride] | < 5 µM | > 50 µM
12 | < 5 µM | < 5 µM | < 0.1 µM | < 5 µM | < 0.1 µM | CS(=O)(=O)CCNCc1ccc(-c2ccc3ncnc(Nc4ccc(OCc5ccccc5)cc4)c3c2)o1 [Example 5, (4-Benzyloxyphenyl)-(6-(5-((2-methanesulphonyl-ethylamino)-methyl)-furan-2-yl)-quinazolin-4-yl)-amine dihydrochloride] | < 5 µM | > 50 µM
13 | 5 to 25 µM | < 5 µM |  | < 5 µM | 0.1 to 1 µM | COc1cc(Nc2ncnc3ccc(-c4csc(CNCCS(C)(=O)=O)n4)cc23)ccc1OCc1cccc(F)c1 [Example 12, N-{4-[(3-fluorobenzyl)oxy]-3-methoxyphenyl}-6-[2-({[2-(methanesulphonyl)ethyl]amino}methyl)-1,3-thiazol-4-yl]-4-quinazolinamine] | < 5 µM | > 50 µM
14 | < 5 µM | < 5 µM |  | < 5 µM | < 0.1 µM | CS(=O)(=O)CCNCc1nc(-c2ccc3ncnc(Nc4ccc(OCc5cccc(F)c5)cc4)c3c2)cs1 [Example 14, N-{4-[(3-fluorobenzyl)oxy]phenyl}-6-[2-({[2-(methanesulphonyl)ethyl]amino}methyl)-1,3-thiazol-4-yl]-4-quinazolinamine] | < 5 µM | > 50 µM
15 | < 5 µM | < 5 µM |  | < 5 µM | < 0.1 µM | CS(=O)(=O)CCNCc1ccc(-c2ccc3ncnc(Nc4ccc(OCc5ccccc5)c(C(F)(F)F)c4)c3c2)o1 [Example 37] | < 5 µM | 25 to 50 µM
